Assays:
[1] = tested on: Tyrosine-protein kinase ABL1 (Homo sapiens), P00519 [M351T]; conditions: Compound concentration 1000.0 nM
[2] = tested on: Tyrosine-protein kinase ABL1 (Homo sapiens), P00519 [T315I]; conditions: Compound concentration 1000.0 nM
[3] = target: Tyrosine-protein kinase Blk (Homo sapiens) (UniProt P51451); conditions: Compound concentration 1000.0 nM
[4] = target: Calcium/calmodulin-dependent protein kinase type II subunit gamma (Homo sapiens) (UniProt Q13555); conditions: Compound concentration 1000.0 nM
[5] = target: Casein kinase I isoform gamma-3 (Homo sapiens) (UniProt Q9Y6M4); conditions: Compound concentration 1000.0 nM
[6] = target: Ephrin type-A receptor 1 (Homo sapiens) (UniProt P21709); conditions: Compound concentration 1000.0 nM
[7] = target: Ephrin type-B receptor 6 (Homo sapiens) (UniProt O15197); conditions: Compound concentration 1000.0 nM
[8] = target: Receptor tyrosine-protein kinase erbB-3 (Homo sapiens) (UniProt P21860); conditions: Compound concentration 1000.0 nM
[9] = target: Glycogen synthase kinase-3 beta (Homo sapiens) (UniProt P49841); conditions: Compound concentration 1000.0 nM
Chain of Glycogen synthase kinase-3 beta (Homo sapiens) (P49841 whole entry, looked up): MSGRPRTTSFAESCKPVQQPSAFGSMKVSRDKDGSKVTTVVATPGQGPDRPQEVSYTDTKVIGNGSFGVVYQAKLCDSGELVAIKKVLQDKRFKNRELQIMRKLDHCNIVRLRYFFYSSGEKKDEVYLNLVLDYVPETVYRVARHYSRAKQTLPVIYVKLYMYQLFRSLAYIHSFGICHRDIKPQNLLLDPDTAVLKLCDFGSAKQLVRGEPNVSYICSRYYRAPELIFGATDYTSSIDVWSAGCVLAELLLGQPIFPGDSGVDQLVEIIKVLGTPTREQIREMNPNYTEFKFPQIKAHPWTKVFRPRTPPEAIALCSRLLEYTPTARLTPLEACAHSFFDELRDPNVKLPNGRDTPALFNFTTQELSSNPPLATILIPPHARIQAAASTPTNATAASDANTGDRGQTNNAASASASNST

[10] = target: Homeodomain-interacting protein kinase 4 (Homo sapiens) (UniProt Q8NE63); conditions: Compound concentration 1000.0 nM
[11] = target: Serine/threonine-protein kinase LATS2 (Homo sapiens) (UniProt Q9NRM7); conditions: Compound concentration 1000.0 nM
[12] = target: LIM domain kinase 2 (Homo sapiens) (UniProt P53671); conditions: Compound concentration 1000.0 nM
[13] = target: Mitogen-activated protein kinase kinase kinase kinase 4 (Homo sapiens) (UniProt O95819); conditions: Compound concentration 1000.0 nM
Chain of Mitogen-activated protein kinase kinase kinase kinase 4 (Homo sapiens) (O95819 2-1239 limits assumed): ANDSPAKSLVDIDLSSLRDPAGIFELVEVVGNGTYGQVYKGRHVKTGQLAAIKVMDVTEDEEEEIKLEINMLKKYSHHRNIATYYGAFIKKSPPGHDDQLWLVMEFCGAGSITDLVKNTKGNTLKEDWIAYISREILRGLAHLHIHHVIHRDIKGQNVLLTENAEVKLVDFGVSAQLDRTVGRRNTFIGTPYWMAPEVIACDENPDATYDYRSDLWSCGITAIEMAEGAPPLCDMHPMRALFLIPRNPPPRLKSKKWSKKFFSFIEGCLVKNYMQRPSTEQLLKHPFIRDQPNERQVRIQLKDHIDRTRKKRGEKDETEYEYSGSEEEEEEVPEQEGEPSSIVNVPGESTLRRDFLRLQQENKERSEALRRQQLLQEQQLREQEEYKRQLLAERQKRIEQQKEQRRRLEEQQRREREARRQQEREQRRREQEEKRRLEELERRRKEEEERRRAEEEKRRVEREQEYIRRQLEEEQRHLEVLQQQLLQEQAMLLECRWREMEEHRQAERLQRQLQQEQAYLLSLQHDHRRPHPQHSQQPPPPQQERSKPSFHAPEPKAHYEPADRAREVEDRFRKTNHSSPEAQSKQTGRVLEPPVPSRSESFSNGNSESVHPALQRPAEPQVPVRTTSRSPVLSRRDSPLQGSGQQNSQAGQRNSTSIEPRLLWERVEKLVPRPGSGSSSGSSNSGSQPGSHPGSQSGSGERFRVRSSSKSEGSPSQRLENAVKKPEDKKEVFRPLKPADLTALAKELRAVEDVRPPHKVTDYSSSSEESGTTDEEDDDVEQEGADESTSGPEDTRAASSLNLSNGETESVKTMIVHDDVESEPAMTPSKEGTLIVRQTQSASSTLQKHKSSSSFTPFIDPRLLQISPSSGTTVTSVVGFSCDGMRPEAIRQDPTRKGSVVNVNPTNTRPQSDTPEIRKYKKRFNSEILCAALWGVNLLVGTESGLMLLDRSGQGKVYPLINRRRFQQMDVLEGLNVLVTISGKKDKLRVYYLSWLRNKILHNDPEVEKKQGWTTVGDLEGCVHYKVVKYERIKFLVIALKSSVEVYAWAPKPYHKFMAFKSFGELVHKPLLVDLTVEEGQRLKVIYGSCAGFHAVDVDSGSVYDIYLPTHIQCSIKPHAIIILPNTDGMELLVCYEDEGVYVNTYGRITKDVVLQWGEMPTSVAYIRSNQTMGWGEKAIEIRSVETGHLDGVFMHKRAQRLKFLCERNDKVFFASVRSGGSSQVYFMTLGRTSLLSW

[14] = target: MAP kinase-activated protein kinase 2 (Homo sapiens) (UniProt P49137); conditions: Compound concentration 1000.0 nM
Chain of MAP kinase-activated protein kinase 2 (Homo sapiens) (P49137 whole entry, looked up): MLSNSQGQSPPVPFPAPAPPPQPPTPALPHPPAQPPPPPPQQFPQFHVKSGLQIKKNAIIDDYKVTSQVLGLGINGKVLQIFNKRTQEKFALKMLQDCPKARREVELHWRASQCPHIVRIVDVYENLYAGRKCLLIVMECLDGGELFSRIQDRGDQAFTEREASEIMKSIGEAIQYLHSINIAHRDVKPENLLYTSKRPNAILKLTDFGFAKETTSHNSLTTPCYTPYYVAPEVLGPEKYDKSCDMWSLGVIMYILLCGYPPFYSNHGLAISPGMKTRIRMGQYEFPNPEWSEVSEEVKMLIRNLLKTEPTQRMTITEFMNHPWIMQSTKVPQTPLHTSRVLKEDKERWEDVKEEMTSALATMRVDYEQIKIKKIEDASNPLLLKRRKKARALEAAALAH

[15] = target: Hepatocyte growth factor receptor (Homo sapiens) (UniProt P08581); conditions: Compound concentration 1000.0 nM
[16] = target: MAP kinase-interacting serine/threonine-protein kinase 1 (Homo sapiens) (UniProt Q9BUB5); conditions: Compound concentration 1000.0 nM
[17] = target: Serine/threonine-protein kinase Nek3 (Homo sapiens) (UniProt P51956); conditions: Compound concentration 1000.0 nM
[18] = target: Serine/threonine-protein kinase Nek4 (Homo sapiens) (UniProt P51957); conditions: Compound concentration 1000.0 nM
[19] = target: Serine/threonine-protein kinase Nek7 (Homo sapiens) (UniProt Q8TDX7); conditions: Compound concentration 1000.0 nM
Chain of Serine/threonine-protein kinase Nek7 (Homo sapiens) (Q8TDX7 whole entry, looked up): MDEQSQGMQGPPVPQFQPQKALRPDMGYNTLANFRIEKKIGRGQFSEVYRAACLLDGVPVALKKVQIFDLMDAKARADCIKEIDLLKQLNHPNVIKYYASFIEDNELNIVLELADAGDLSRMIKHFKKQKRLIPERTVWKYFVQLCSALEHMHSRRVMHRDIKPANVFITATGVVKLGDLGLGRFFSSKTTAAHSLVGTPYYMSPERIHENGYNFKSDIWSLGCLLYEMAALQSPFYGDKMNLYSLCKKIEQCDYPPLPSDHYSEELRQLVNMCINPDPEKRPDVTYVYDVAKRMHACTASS

[20] = target: Mitogen-activated protein kinase 14 (Homo sapiens) (UniProt Q16539); conditions: Compound concentration 1000.0 nM
[21] = target: Serine/threonine-protein kinase PAK 5 (Homo sapiens) (UniProt Q9P286); conditions: Compound concentration 1000.0 nM
[22] = target: Cyclin-dependent kinase 2 homolog (Plasmodium falciparum (isolate 3D7)) (UniProt P61075); conditions: Compound concentration 1000.0 nM
[23] = tested on: Phosphatidylinositol 4,5-bisphosphate 3-kinase catalytic subunit alpha isoform (Homo sapiens), P42336 [H1047Y]; conditions: Compound concentration 1000.0 nM
[24] = target: Serine/threonine-protein kinase N2 (Homo sapiens) (UniProt Q16513); conditions: Compound concentration 1000.0 nM
[25] = target: Serine/threonine-protein kinase PLK1 (Homo sapiens) (UniProt P53350); conditions: Compound concentration 1000.0 nM
Chain of Serine/threonine-protein kinase PLK1 (Homo sapiens) (P53350 whole entry): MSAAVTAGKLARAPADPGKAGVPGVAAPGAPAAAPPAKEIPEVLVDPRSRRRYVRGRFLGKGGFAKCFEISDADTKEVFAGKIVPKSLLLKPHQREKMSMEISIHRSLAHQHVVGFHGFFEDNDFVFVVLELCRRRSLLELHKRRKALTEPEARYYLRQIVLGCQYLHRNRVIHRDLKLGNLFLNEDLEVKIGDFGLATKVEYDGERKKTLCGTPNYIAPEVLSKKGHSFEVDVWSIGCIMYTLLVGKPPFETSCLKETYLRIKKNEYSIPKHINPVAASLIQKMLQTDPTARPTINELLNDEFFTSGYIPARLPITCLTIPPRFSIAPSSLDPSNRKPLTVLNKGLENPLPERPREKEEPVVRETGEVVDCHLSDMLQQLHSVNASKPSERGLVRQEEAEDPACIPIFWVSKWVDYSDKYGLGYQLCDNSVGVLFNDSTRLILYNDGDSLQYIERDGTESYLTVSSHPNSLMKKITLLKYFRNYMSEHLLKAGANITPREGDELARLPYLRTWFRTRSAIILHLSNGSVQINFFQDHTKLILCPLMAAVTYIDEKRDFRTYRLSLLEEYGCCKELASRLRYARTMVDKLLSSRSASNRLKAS

[26] = target: Serine/threonine-protein kinase PLK4 (Homo sapiens) (UniProt O00444); conditions: Compound concentration 1000.0 nM
[27] = target: Ribosomal protein S6 kinase alpha-2 (Homo sapiens) (UniProt Q15349); conditions: Compound concentration 1000.0 nM
[28] = target: Activated CDC42 kinase 1 (Homo sapiens) (UniProt Q07912); conditions: Compound concentration 1000.0 nM
Chain of Activated CDC42 kinase 1 (Homo sapiens) (Q07912 whole entry, looked up): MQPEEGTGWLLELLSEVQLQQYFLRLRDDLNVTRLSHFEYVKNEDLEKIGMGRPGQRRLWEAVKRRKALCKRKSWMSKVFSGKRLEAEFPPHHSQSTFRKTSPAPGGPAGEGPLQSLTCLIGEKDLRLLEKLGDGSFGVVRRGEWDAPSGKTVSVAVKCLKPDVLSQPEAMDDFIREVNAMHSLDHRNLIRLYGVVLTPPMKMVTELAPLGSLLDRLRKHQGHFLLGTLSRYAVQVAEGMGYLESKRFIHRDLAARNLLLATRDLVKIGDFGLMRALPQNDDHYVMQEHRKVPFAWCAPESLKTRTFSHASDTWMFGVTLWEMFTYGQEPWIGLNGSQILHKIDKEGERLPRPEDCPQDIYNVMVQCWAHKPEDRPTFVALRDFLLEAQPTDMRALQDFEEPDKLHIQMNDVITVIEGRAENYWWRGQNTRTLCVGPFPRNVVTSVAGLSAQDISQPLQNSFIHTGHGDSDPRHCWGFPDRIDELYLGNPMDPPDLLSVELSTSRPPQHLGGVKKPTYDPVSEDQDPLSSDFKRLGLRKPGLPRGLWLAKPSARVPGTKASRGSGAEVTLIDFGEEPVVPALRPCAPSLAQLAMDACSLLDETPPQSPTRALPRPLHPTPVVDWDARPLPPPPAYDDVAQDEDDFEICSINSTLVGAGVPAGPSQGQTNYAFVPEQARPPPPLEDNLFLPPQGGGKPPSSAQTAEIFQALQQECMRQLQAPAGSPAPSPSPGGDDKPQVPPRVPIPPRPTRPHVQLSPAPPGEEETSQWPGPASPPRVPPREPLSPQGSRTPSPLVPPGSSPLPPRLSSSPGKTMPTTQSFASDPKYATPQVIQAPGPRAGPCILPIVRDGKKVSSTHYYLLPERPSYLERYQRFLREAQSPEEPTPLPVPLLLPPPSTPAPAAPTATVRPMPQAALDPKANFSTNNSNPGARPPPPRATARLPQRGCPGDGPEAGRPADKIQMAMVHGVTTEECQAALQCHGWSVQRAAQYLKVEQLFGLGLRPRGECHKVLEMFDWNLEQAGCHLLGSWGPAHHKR

[29] = target: Tyrosine-protein kinase Yes (Homo sapiens) (UniProt P07947); conditions: Compound concentration 1000.0 nM
Chain of Tyrosine-protein kinase Yes (Homo sapiens) (P07947 2-543 limits assumed): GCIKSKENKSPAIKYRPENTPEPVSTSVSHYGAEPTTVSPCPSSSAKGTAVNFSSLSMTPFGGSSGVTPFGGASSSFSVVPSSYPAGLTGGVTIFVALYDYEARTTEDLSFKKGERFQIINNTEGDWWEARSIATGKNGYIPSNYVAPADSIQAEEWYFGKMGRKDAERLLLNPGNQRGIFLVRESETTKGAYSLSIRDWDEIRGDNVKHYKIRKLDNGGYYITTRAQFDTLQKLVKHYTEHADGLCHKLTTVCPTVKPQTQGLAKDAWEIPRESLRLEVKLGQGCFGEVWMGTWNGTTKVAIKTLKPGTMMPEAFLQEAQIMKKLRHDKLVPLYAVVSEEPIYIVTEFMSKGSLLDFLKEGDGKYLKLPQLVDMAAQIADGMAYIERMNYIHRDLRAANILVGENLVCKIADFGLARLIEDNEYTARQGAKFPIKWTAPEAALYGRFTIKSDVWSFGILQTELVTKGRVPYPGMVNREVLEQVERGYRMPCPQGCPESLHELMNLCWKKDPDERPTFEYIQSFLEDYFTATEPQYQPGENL

[30] = target: Serine/threonine-protein kinase 25 (Homo sapiens) (UniProt O00506); conditions: Compound concentration 1000.0 nM
[31] = target: T1, Alpha-1A adrenergic receptor (Homo sapiens) (UniProt P35348); conditions: Compound concentration 10.0 uM
T1 sequence (whole entry): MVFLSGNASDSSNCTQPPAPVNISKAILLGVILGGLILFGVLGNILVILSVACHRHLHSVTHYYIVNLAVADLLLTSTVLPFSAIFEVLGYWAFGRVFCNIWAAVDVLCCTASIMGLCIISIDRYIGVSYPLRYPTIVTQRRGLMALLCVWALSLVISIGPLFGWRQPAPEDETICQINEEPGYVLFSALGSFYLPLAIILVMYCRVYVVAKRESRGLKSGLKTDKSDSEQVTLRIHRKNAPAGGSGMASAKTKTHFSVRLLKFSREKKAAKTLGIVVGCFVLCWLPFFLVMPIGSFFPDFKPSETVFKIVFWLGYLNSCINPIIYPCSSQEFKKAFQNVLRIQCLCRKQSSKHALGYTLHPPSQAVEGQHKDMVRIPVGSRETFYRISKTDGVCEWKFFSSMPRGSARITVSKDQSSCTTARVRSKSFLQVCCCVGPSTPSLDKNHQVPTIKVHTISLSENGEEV

[32] = target: T2, Muscarinic acetylcholine receptor M2 (Homo sapiens) (UniProt P08172); conditions: Compound concentration 10.0 uM
T2 sequence (whole entry): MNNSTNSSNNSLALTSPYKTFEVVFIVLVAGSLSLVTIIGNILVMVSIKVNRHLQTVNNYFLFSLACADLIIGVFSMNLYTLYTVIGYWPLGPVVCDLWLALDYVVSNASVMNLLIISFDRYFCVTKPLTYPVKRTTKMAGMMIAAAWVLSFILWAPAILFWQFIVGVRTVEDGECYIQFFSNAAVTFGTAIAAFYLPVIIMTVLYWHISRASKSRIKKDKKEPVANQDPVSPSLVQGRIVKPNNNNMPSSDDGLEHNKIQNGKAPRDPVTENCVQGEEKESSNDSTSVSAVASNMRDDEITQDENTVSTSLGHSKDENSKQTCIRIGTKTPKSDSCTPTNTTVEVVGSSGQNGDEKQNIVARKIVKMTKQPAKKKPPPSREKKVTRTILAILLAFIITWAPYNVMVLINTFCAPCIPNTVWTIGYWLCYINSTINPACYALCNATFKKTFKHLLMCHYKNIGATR

Chain of Tyrosine-protein kinase Blk (Homo sapiens) (P51451 2-505 limits assumed): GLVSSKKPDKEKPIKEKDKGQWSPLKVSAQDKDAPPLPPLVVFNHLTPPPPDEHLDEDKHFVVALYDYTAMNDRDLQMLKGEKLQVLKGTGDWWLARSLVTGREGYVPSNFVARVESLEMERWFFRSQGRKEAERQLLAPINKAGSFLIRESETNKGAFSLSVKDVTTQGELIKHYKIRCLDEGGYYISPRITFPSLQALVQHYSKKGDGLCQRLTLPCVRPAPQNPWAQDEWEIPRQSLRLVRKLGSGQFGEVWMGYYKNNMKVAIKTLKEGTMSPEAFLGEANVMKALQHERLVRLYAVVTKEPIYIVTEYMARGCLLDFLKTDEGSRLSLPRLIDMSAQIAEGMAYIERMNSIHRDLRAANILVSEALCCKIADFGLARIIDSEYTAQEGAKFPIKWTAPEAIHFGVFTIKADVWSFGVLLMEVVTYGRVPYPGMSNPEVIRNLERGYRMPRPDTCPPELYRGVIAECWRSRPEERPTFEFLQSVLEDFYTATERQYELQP

O=C(NCc1ncc(C(F)(F)F)cc1Cl)c1ccc2c(c1)C1(CCS(=O)(=O)CC1)[C@@H](C1CC1)N2S(=O)(=O)c1ccc(F)cc1 [BAY-786]
inactive: residual activity [1] 94% | residual activity [2] 72% | residual activity [3] 100% | residual activity [4] 84% | residual activity [5] 100% | residual activity [6] 86% | residual activity [7] 94% | residual activity [8] 100% | residual activity [9] 90% | residual activity [10] 97% | residual activity [11] 99% | residual activity [12] 94% | residual activity [13] 100% | residual activity [14] 100% | residual activity [15] 81% | residual activity [16] 78% | residual activity [17] 100% | residual activity [18] 99% | residual activity [19] 65% | residual activity [20] 100% | residual activity [21] 74% | residual activity [22] 97% | residual activity [23] 85% | residual activity [24] 68% | residual activity [25] 82% | residual activity [26] 92% | residual activity [27] 100% | residual activity [28] 84% | residual activity [29] 93% | residual activity [30] 99% | inhibition [31] 1.7% | inhibition [32] 12.5%

O=C(NCc1ncc(C(F)(F)F)cc1Cl)c1ccc2c(c1)C1(CCS(=O)(=O)CC1)[C@H](C1CC1)N2S(=O)(=O)c1ccc(F)cc1 [BAY-784]
inactive: residual activity [1] 91% | residual activity [2] 57% | residual activity [3] 78% | residual activity [4] 100% | residual activity [5] 100% | residual activity [6] 100% | residual activity [7] 80% | residual activity [8] 100% | residual activity [9] 87% | residual activity [10] 100% | residual activity [11] 100% | residual activity [12] 100% | residual activity [13] 91% | residual activity [14] 100% | residual activity [15] 100% | residual activity [16] 74% | residual activity [17] 100% | residual activity [18] 99% | residual activity [19] 100% | residual activity [20] 100% | residual activity [21] 100% | residual activity [22] 94% | residual activity [23] 90% | residual activity [24] 70% | residual activity [25] 86% | residual activity [26] 92% | residual activity [27] 99% | residual activity [28] 85% | residual activity [29] 90% | residual activity [30] 100% | inhibition [31] -0.32% | inhibition [32] 8.38%
